Values quoted from earlier work in publication PMC8618441, “From Natural Xanthones to Synthetic C-1 Aminated 3,4-Dioxygenated Xanthones as Optimized Antifouling Agents” (Marine Drugs, 2021).

How the values were obtained:
Set-up in all cases: method as in PMID 23172582
Settings in all cases: in words; cited from earlier work
Escherichia coli = system: Escherichia coli
Staphylococcus aureus = system: Staphylococcus aureus
[1] = system: Colletotrichum lagenarium
[2] = system: brine shrimp (Artemia salina)

COc1cc(C(=O)O)cc2oc3cc(C)cc(O)c3c(=O)c12 [yicathin C]
antimicrobial activity against Escherichia coli (Escherichia coli): could inhibit | antimicrobial activity against Staphylococcus aureus (Staphylococcus aureus): could inhibit | antimicrobial activity against Colletotrichum lagenarium [1]: could inhibit | brine shrimp (Artemia salina) toxicity [2]: weak
